One assay concerns A427 cells. In words: Tumor cell proliferation inhibitory activity assay (CCK-8). It counts as cell-based, Human. To be noted: for IC50: CCK-8; for activity in inhibiting cancer cell proliferation compared with reference compound Debio 0123 or ZN-c3: comparison in words. The procedure: Human lung cancer A427 cells are cancer cells reported to be sensitive to wee1 inhibitors. In this assay, the anti-cancer effects of the compounds of the present disclosure were verified by assessing the activity of the test substances in inhibiting A427 cell proliferation.
A427 cells were cultured according to the cell culture instructions, and cells in the logarithmic growth phase were collected, counted, resuspended in a complete culture medium, and inoculated into a 96-well plate at a cell concentration of 100 µL/3000 cells/well. The cells were incubated in an incubator at 37 °C with 100% relative humidity and 5% CO2 for 24 h.
The compounds to be tested were dissolved in DMSO and diluted 4-fold with a culture medium from 10 µM to 10 concentration gradients.
The culture medium waste was pipetted off, and 100 µL of the formulated culture medium of the compound to be tested was added to each well. The cells were incubated in an incubator at 37 °C with 100% relative humidity and 5% CO2 for 72 h.
The plate was taken out, the CCK-8 reagent was added at 10 µL/well, and the plate was incubated in an incubator at 37 °C for 2-4 h.
The cell growth inhibition rates of the drugs were calculated using the following formula: Cell growth inhibition rate% = [(Ac−As)/(Ac−Ab)] × 100% [formula] • As: the OA of the samples (cells + CCK-8 + compounds to be tested) • Ac: the OA of the normal growth cell control (cells + CCK-8) • Ab: the OA of the blank control (culture medium + CCK-8)
IC50 curve fitting was performed using the software Graphpad Prism 6 and the calculation formula XY-analysis/Nonlinear regression(curve fit)/Dose response-Inhibition/log(inhibitor)vs. response-Variable slope(four parameters), and the IC50 values were calculated. Table 1. Data analysis and results for some representative compounds

The target in another assay is YES1 kinase (Homo sapiens, UniProt P07947). As to the kind of experiment: YES1 protein kinase inhibitory activity assay (HTRF). It counts as biochemical. To be noted: for IC50: HTRF, YES1 kinase, ATP 10 µM; for inhibition of the Yes target (in words): summary statement on the assay results. The procedure: In this experiment, the capability of the compound MRANK-106 of the present disclosure to inhibit kinase activity was assessed by an HTRF method using a drug screening system based on the YES1 kinase.
Sequence of YES1 kinase (P07947 whole entry): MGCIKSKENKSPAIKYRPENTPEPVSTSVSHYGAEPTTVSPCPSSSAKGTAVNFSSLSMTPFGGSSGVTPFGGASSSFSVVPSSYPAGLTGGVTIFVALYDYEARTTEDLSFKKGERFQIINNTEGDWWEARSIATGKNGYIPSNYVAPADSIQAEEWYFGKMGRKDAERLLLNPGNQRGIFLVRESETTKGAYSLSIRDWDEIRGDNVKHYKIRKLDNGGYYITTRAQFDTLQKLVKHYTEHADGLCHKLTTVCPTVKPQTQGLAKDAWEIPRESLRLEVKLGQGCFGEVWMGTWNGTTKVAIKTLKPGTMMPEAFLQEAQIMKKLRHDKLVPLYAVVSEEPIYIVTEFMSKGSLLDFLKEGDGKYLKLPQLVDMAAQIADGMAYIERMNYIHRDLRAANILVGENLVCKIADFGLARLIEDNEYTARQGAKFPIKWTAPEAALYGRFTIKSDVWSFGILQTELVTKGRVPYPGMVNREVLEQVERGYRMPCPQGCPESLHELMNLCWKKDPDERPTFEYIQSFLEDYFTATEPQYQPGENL
Table 3-1. Information about reagents and consumables
The enzymatic activity conditions and HTRF system formulation are shown in Table 3-3; the experimental conditions for the kinase activity assay are shown in Table 3-4. Table 3-3. HTRF system formulation
Table 3-4. The experimental conditions for the kinase activity assay
The test compound MRANK-106 was dissolved in DMSO, and the solution was vortexed and shaken for thorough mixing. The solution was serially diluted 3-fold with DMSO, with the initial concentration being 503 nM.
① A 2× ATP/substrate solution and a 2× kinase solution were formulated using a kinase reaction buffer.
② 50 nL of the compound dilution was transferred to a 384 detection plate using Echo 655. After centrifugation, 2.5 µL of a 2× kinase solution was added to the 384 detection plate. The plate was centrifuged at 1000 rpm for 1 min and incubated at 25 °C for 10 min.
② 2.5 µL of the 2× substrate and ATP solution was added to the 384 detection plate, and the plate was centrifuged at 1000 rpm for 1 min and incubated at 25 °C for 60 min.
④ A 2× XL665 and antibody detection reagent was formulated using a detection buffer.
⑤ 5 µL of a kinase detection reagent was added to the detection plate, and the plate was incubated at 25 °C. The plate was centrifuged at 1000 rpm for 1 min and incubated at 25 °C for 1 h.
⑥ The fluorescence signals at 620 nm (Cryptate) and 665 nm (XL665) were read using a BMG high-throughput drug-screening multi-mode microplate reader.
With the reading of the negative control set as an inhibition rate of 0% and the reading of the positive control set as an inhibition rate of 100%, the inhibition rate of each test solution was calculated using the following formula: [formula] • Datapositive control: the average of the positive control well values • Datanegative control : the average of the negative control well values
The IC50 (half maximal inhibitory concentration) of the compound was obtained using the following nonlinear fitting formulas: Y = Bottom + (Top−Bottom)/(1+10^(∧)((LogIC50−X)*HillSlope)) [formula] • X: the log value of the compound concentration • Y: the inhibition rate (% inh) of the compound
The Z' factor calculation equation: Z′ = 1−3(SDmin+SDmax)/(AVEmax−AVEmin) [formula] where: • Min is the positive control Data value, and Max is the negative control DMSO Data value; • SD stands for standard deviation, and AVE stands for average.
Background: TR-FRET usually uses a lanthanide donor and a delayed reading to cut background.

In another assay the target is Wee1 kinase (Homo sapiens, UniProt P30291). As to the kind of experiment: WEE1 protein kinase inhibitory activity assay (ADP-GLO luminescence). It counts as biochemical. Particulars: for IC50: Wee1 10 ng/well, ATP 10 µM, 3 h, 37 °C; for inhibition of the Weel target (in words): summary statement on the assay results. Here is the method: The influence of the compound MRANK-106 of the present disclosure on the kinase activity of Weel was assessed using an in vitro kinase reaction system.
Sequence of Wee1 kinase (P30291 whole entry): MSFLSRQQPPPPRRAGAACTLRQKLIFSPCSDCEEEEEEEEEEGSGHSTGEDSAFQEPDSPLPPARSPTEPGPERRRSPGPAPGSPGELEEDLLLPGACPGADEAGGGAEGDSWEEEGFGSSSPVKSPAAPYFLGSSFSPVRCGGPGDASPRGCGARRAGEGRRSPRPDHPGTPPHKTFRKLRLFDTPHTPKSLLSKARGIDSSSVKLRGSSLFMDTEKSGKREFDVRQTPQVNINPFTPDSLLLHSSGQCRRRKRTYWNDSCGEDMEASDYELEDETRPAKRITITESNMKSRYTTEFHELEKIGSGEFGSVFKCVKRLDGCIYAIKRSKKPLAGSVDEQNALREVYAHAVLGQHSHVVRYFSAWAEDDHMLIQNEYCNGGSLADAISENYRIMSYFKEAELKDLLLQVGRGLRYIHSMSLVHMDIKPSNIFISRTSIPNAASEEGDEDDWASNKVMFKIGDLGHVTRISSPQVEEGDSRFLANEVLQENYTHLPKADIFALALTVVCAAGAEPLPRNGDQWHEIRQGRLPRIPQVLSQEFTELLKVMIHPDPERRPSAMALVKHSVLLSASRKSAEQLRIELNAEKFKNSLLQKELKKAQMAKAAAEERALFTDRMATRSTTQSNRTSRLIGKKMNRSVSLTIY
Table 2-1. Information about reagents and consumables
① 1× kinase buffer: A 5× kinase buffer was diluted with ddH2O to make a 1× kinase buffer. Table 2-3. The reagent components added to the 1× kinase buffer
③ 5× enzyme working solution: The optimization of the enzyme concentration had been completed in previous work, and the concentration of the reagent used in the screening is shown in Table 2-4. A 5× enzyme working solution of the enzyme was formulated using the 1× kinase buffer.
④ Compound formulation: A 10 mM mother liquor was formulated using DMSO, aliquoted, and then stored at -20 °C. Immediately before use, the mother liquor was thawed, diluted with DMSO to 1 mM, serially diluted 4-fold to 10 concentration points, and then 40-fold diluted with the 1× kinase buffer to give a 2.5× working solution. Table 2-4. The experimental conditions for the kinase activity assay
After the above reagents were formulated and equilibrated to room temperature, 4 µL of the diluted solution of the compound to be tested and 2 µL of the formulated enzyme solution were added to reaction wells. After shaking and centrifugation, the plate was incubated at room temperature for 15 min, and 4 µL of the ATP solution was then added to start a kinase reaction. After 3 h of reaction at 37 °C, 10 µL of an ADP-GLO reagent was added. After thorough mixing, the mixture was left to react at room temperature for 40 min, and 20 µL of a detection reagent was then added. After 30 min of reaction at room temperature, the luminescence signals were detected using a SpectraMax L instrument. Two independent duplicate assays were performed. The inhibition rate of each well was calculated based on all activity wells and background signal wells, with an average calculated for duplicate wells. Meanwhile, the inhibition rate was plotted using the professional graphing and analysis software PRISM 9.0, and the IC50 was calculated.
The inhibition rates of the compounds to be tested against the kinase activity of Wee1 were calculated using the following formula: Inhibition rate% = (Lumvehicle−Lumcompound)/(Lumvehicle−Lumblank) × 100% [formula] • Lumcompound: the luminescence of the sample treatment groups • Lumvehicle: the luminescence of the solvent control group • Lumblank: the luminescence of the blank group
Background: In ADP-Glo the light output rises with the ADP produced.

Where [1] appears, read: Homo sapiens, A-427, 72 h compound incubation.

For orientation: IC50 means the concentration at which inhibition is half-maximal. Lower therefore signals inhibition by little substance.

`COc1cc(Nc2ncc3c(=O)n4n(c3n2)-c2cccc(n2)[C@](C)(O)CCC=CC4)ccc1OC1CCN(C)CC1` [Compound 143, (R,Z)-12-hydroxy-2-((3-methoxy-4-((1-methylpiperidin-4-yl)oxy)phenyl)amino)-12-methyl-7,10,11,12-tetrahydro-5H-13,17-(azeno)pyrimido[4',5':3,4]pyrazolo[1,2-a][1,2]diazacyclotridecin-5-one] had an IC50 in the assay with A427 cells (setting [1]) of 0.065 µM. The “activity in inhibiting cancer cell proliferation compared with reference compound Debio 0123 or ZN-c3” value in the assay on A427 cells is listed as “several times to several dozen times higher”.
For `Cc1cc(Nc2ncc3c(n2)N(C)CN(c2c(Cl)cccc2Cl)C3=O)ccc1C1CCN(C)CC1` [Debio 0123, reference compound], the midpoint of inhibition in the assay on A427 cells (72 h compound incubation), the IC50, lay at 1.61 µM.
On to `Cc1cc(Nc2ncc3c(=O)n4n(c3n2)-c2cccc(n2)C(C)(O)CCC=CC4)ccc1OC1(C)CCN(C)CC1` (stereo not shown) [Compound 89, (Z)-2-((4-((1,4-dimethylpiperidin-4-yl)oxy)-3-methylphenyl)amino)-12-hydroxy-12-methyl-7,10,11,12-tetrahydro-5H-13,17-(azeno)pyrimido[4',5':3,4]pyrazolo[1,2-a][1,2]diazacyclotridecin-5-one], for which, on YES1 kinase, the IC50 was 0.0185 µM and the “inhibition of the Yes target (in words)” value was “strongly inhibited”. For the same compound, the IC50 in the assay with A427 cells (setting [1]) was determined as 0.219 µM. In addition, on Wee1 kinase, the IC50 amounted to 0.0668 µM and the “inhibition of the Weel target (in words)” value is “strongly inhibited”.
`Cc1cc(Nc2ncc3c(=O)n4n(c3n2)-c2cccc(n2)C(C)(O)CC/C=C\C4)ccc1NC1CCN(C)CC1` (single isomer, unassigned) [Compound 203A]: the IC50 in the assay on A427 cells (setting [1]) was found to be 0.071 µM; against Wee1 kinase, 0.0132 µM. Further, the “activity in inhibiting cancer cell proliferation compared with reference compound Debio 0123 or ZN-c3” value in the assay on A427 cells is listed as “several times to several dozen times higher”.
Regarding `CCOP1(=O)CCN(c2ccc(Nc3ncc4c(=O)n5n(c4n3)-c3cccc(n3)C(C)(O)CCC=CC5)cc2C)CC1` (racemic) [Compound 182, (Z)-2-((4-(4-ethoxy-4-oxido-1,4-azaphosphinan-1-yl)-3-methylphenyl)amino)-12-hydroxy-12-methyl-7,10,11,12-tetrahydro-5H-13,17-(azeno)pyrimido[4',5':3,4]pyrazolo[1,2-a][1,2]diazacyclotridecin-5-one], at YES1 kinase, the midpoint of inhibition, the IC50, lay at 0.0199 µM and the “inhibition of the Yes target (in words)” value was “strongly inhibited”. This compound also had an IC50 in the assay on A427 cells (setting [1]) of 0.16 µM. For the same compound, on Wee1 kinase, half-maximal inhibition (IC50) required 0.0301 µM and the “inhibition of the Weel target (in words)” value is on record as “strongly inhibited”.
In turn, `CN1CCN(Cc2ccc(Nc3ncc4c(=O)n5n(c4n3)-c3cccc(n3)C(C)(O)CCC=CC5)cc2)CC1` (stereo not shown) [Compound 214, (Z)-12-hydroxy-12-methyl-2-((4-((4-methylpiperazin-1-yl)methyl)phenyl)amino)-7,10,11,12-tetrahydro-5H-13,17-(azeno)pyrimido[4',5':3,4]pyrazolo[1,2-a][1,2]diazacyclotridecin-5-one] returned an IC50 in the assay with A427 cells (setting [1]) of 0.144 µM.
`[2H]C1(Oc2ccc(Nc3ncc4c(=O)n5n(c4n3)-c3cccc(n3)[C@](C)(O)CCC=CC5)cc2C)CCN(C)CC1` (single isomer, unassigned) [Compound 172A]: at YES1 kinase, the IC50 was found to be 0.0058 µM and the “inhibition of the Yes target (in words)” value is “strongly inhibited”. In addition, the IC50 with A427 cells (setting [1]) worked out at 0.015 µM. For the same compound, in the assay with A427 cells, the “activity in inhibiting cancer cell proliferation compared with reference compound Debio 0123 or ZN-c3” value is listed as “several times to several dozen times higher”. For the same compound, at Wee1 kinase, the IC50 stood at 0.0065 µM and the “inhibition of the Weel target (in words)” value is “strongly inhibited”.
The compound `Cc1cc(Nc2ncc3c(=O)n4n(c3n2)-c2cccc(n2)[C@](C)(O)CCCCC4)ccc1OC1CCN(C)CC1` [Compound 28, (R)-12-hydroxy-12-methyl-2-((3-methyl-4-((1-methylpiperidin-4-yl)oxy)phenyl)amino)-7,8,9,10,11,12-hexahydro-5H-13,17-(azeno)pyrimido[4',5':3,4]pyrazolo[1,2-a][1,2]diazacyclotridecin-5-one] gave an IC50 with A427 cells (setting [1]) of 0.152 µM.
`Cc1cc(Nc2ncc3c(=O)n4n(c3n2)-c2cccc(n2)C(C)(O)CCC=CC4)ccc1OC1CN(C)[C@H]1C` (stereo partly drawn) [Compound 202, (Z)-2-((4-(((2S)-1,2-dimethylazetidin-3-yl)oxy)-3-methylphenyl)amino)-12-hydroxy-12-methyl-7,10,11,12-tetrahydro-5H-13,17-(azeno)pyrimido[4',5':3,4]pyrazolo[1,2-a][1,2]diazacyclotridecin-5-one]: on YES1 kinase, half-maximal inhibition (IC50) was put at 0.0188 µM and the “inhibition of the Yes target (in words)” value is “strongly inhibited”. This compound also registered a half-inhibitory concentration (IC50) with A427 cells (setting [1]) of 0.078 µM. In the assay on A427 cells, the “activity in inhibiting cancer cell proliferation compared with reference compound Debio 0123 or ZN-c3” value is on record as “several times to several dozen times higher”. For the same compound, on Wee1 kinase, half-maximal inhibition (IC50) required 0.0164 µM and the “inhibition of the Weel target (in words)” value was “strongly inhibited”.
With `Cc1cc(Nc2ncc3c(=O)n4n(c3n2)-c2cccc(n2)[C@](C)(O)CCC=CC4)ccc1OC1CCN(C2COC2)CC1` [Compound 205, (R,Z)-12-hydroxy-12-methyl-2-((3-methyl-4-((1-(oxetan-3-yl)piperidin-4-yl)oxy)phenyl)amino)-7,10,11,12-tetrahydro-5H-13,17-(azeno)pyrimido[4',5':3,4]pyrazolo[1,2-a][1,2]diazacyclotridecin-5-one], in the assay on A427 cells (setting [1]), the IC50 came out at 0.163 µM.

The record behind these values is patent EP4711366A1, “PYRIMIDO MACROHETEROCYCLIC COMPOUND AS WEE1-YES DUAL-TARGET INHIBITOR AND USE THEREOF” (Mindrank AI Ltd., priority 2023, dated 2024).
